Experimental data: patent US4623662A, “Antiatherosclerotic ureas and thioureas” (American Cyanamid Company, priority 1985, dated 1986)
Where two headings read alike, the source gives them in different places.

Legend:
[1] = biological target: T1, fatty acyl CoA: cholesterol acyl transferase (ACAT) (Rattus norvegicus, UniProt O70536); experiment: Inhibition of fatty acyl CoA:cholesterol acyl transferase (ACAT), rat adrenal enzyme; format: biochemical; conditions: for IC50: several concentrations
T1 construct: The supernatant, containing the microsomal fraction, served as the source of the cholesterol-esterifying enzyme; from tissue; host or cells: rat adrenals, supernatant of 1,000 x g centrifugation containing the microsomal fraction
T1 sequence (O70536 1-545): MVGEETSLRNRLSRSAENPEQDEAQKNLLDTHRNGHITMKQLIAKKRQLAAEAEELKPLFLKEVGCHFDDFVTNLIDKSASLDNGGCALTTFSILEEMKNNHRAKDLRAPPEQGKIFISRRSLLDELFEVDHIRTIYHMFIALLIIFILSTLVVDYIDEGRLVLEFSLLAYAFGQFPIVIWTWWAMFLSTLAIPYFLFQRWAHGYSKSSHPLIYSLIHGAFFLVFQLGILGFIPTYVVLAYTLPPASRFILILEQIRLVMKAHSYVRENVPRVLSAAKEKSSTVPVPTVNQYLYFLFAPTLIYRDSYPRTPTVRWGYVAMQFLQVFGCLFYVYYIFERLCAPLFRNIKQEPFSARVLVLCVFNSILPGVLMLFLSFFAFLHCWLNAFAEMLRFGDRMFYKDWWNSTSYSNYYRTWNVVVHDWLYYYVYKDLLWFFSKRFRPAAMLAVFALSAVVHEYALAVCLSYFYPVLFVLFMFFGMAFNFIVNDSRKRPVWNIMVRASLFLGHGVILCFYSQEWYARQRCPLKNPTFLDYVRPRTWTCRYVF
Method in brief: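 Enzyme source was the microsomal supernatant of rat adrenal homogenate (0.2M potassium phosphate, pH 7.4) with BSA, preincubated with compound (5.2 μg/ml final for single-point) for 10 min at 37° C. Then [14C]oleoyl CoA added, 10 min at 37° C. TLC-separated cholesteryl ester was counted; percent inhibition versus control, IC50 from several concentrations.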

[2] = test system: cholesterol absorption; experiment: Inhibition of cholesterol absorption in rats fed 1% cholesterol:0.5% cholic acid diet; format: in vivo, male Sprague-Dawley rats; conditions: po, 336 h, rat, 2 weeks; for response vs control in vivo at 0.03 %: dose .03% of the diet; for response vs control in vivo at 0.01 %: dose .01% of the diet
Method in brief: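 Male Sprague-Dawley rats (150-170 g) fed 1% cholesterol:0.5% cholic acid diet for 2 weeks with compound at 0.001, 0.003, 0.01 or 0.03% of diet. Serum cholesterol measured enzymatically; liver cholesterol from saponified large-lobe sample after petroleum ether extraction. Liver and serum sterol expressed as percent of untreated controls.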

[3] = read-out: LS (liver sterol), percentage of control values
[4] = read-out: SS (serum sterol), percentage of control values
[5] = rat adrenal ACAT, final concentration 5.2 μg/ml, read-out: % Inhibition

SMILES	IC50 ([1]; rat adrenal ACAT) [nM]	inhibition at 5.2 µg/mL [1, 5] [%]	inhibition at 5.2 µg/mL [1] [%]	response vs control in vivo at 0.03 % [2, 3] [%]	response vs control in vivo at 0.03 % [2, 4] [%]	response vs control in vivo at 0.01 % [2, 3] [%]	response vs control in vivo at 0.01 % [2, 4] [%]
CCCCc1ccc(CN(CCCCC(C)(C)C)C(=O)Nc2ccc(F)cc2F)cc1 [1-(5,5-Dimethylhexyl)-1-[4-(n-butyl)benzyl]-3-(2,4-difluorophenyl)urea]	–	–	90	58	59	–	–
CCCCc1ccc(CN(CCCCC(C)(C)C)C(=O)Nc2ccc(Cl)cc2C)cc1 [1-(5,5-Dimethylhexyl)-1-[4-(n-butyl)benzyl]-3-(4-chloro-2-methylphenyl)urea]	–	–	90	34	42	–	–
CC(C)CCN(Cc1ccc(C(C)C)cc1)C(=O)Nc1c(F)cc(F)cc1F [1-(Isopentyl)-1-[4-(isopropyl)benzyl]-3-(2,4,6-trifluorophenyl)urea]	530	–	–	35	31	–	–
CCCCCCCOc1ccc(CN(CCCC)C(=O)Nc2c(C)cc(C)cc2C)cc1 [1-(n-Butyl)-1-(4-heptyloxybenzyl)-3-(2,4,6-trimethylphenyl)urea]	–	–	97.3	31	66	–	–
CCCCCCCN(CCc1ccccc1)C(=O)Nc1ccc(C)cc1C [1-(n-Heptyl)-1-(2-phenylethyl)-3-(2,4-dimethylphenyl)urea]	–	95.7	–	36	57	–	–
CCCCCCCN(CCc1ccccc1)C(=O)Nc1ccc(Cl)cc1C(F)(F)F [1-(n-Heptyl)-1-(2-phenylethyl)-3-(2-trifluoromethyl-4-chlorophenyl)urea]	–	–	88.3	80	79	–	–
CCCCCCCN(Cc1ccc(OCCCC)cc1)C(=O)Nc1ccc(C)cc1C [1-(n-Heptyl)-1-(4-butyloxybenzyl)-3-(2,4-dimethylphenyl)urea]	–	94.6	–	22	26	–	–
CCCCCCCN(Cc1ccc(OCCCC)cc1)C(=O)Nc1c(Cl)cc(Cl)cc1Cl [1-(n-Heptyl)-1-(4-n-butoxybenzyl)-3-(2,4,6-trichlorophenyl)urea]	–	–	90	11	35	–	–
CCCCCCCN(Cc1ccc(OCCCC)cc1)C(=O)Nc1ccc(F)cc1F [1-(n-Heptyl)-1-(4-n-butoxybenzyl)-3-(2,4-difluorophenyl)urea]	–	82.7	–	25	63	–	–
CCCCCCCN(Cc1ccc(OCCCC)cc1)C(=O)Nc1ccc(Cl)cc1C [1-(n-Heptyl)-1-(4-n-butoxybenzyl)-3-(2-methyl-4-chlorophenyl)urea]	–	91.7	–	15	53	–	–
CCCCCCCN(Cc1ccc(OCCCC)cc1)C(=O)Nc1cccc(C(F)(F)F)c1 [1-(n-Heptyl)-1-(4-n-butoxybenzyl)-3-(3-trifluoromethylphenyl)urea]	–	82.4	–	86	80	–	–
CCCCCCCN(Cc1ccc(CCCC)cc1)C(=O)Nc1c(Cl)cc(Cl)cc1Cl [1-(n-Heptyl)-1-(4-n-butylbenzyl)-3-(2,4,6-trichlorophenyl)urea]	–	–	90	8	28	–	–
CCCCCCCN(Cc1ccc(CCCC)cc1)C(=O)Nc1ccc(Cl)cc1C [1-(n-Heptyl)-1-(4-n-butylbenzyl)-3-(2-methyl-4-chlorophenyl)urea]	–	92.5	–	16	35	–	–
CCCCCCCN(Cc1ccc(CCCC)cc1)C(=O)Nc1ccc(Cl)cc1C(F)(F)F [1-(n-Heptyl)-1-(4-n-butylbenzyl)-3-(2-trifluoromethyl-4-chlorophenyl)urea]	–	–	90	47	63	–	–
CCCCCCCN(Cc1ccc(CCCC)cc1)C(=O)Nc1ccc(C(=O)OCC)cc1 [1-(n-Heptyl)-1-(4-n-butylbenzyl)-3-(4-carboethoxyphenyl)urea]	–	92.4	–	84	88	–	–

Second part, led by results:

IC50 ([1]; rat adrenal ACAT) [nM]	inhibition at 5.2 µg/mL [1, 5] [%]	SMILES	inhibition at 5.2 µg/mL [1] [%]	response vs control in vivo at 0.03 % [2, 3] [%]	response vs control in vivo at 0.03 % [2, 4] [%]	response vs control in vivo at 0.01 % [2, 3] [%]	response vs control in vivo at 0.01 % [2, 4] [%]
3370	–	CC(C)CCN(Cc1ccc(C(C)C)cc1)C(=O)Nc1ccc(F)cc1F [1-(Isopentyl)-1-[4-(isopropyl)benzyl]-3-(2,4-difluorophenyl)urea]	–	37	49	–	–
540	–	Cc1cc(Cl)cc(C)c1NC(=O)N(CCC(C)C)Cc1ccc(C(C)C)cc1 [1-(Isopentyl)-1-[4-(isopropyl)benzyl]-3-(4-chloro-2,6-dimethylphenyl)urea]	–	23	23	–	–
–	89	CCCCN(Cc1ccccc1)C(=O)Nc1ccc(Cl)cc1C [1-(n-Butyl)-1-benzyl-3-(4-chloro-2-methylphenyl)urea]	–	62	72	–	–
–	91.8	CCCCCCCN(CCc1ccccc1)C(=O)Nc1ccc(Cl)cc1Cl [1-(n-Heptyl)-1-(2-phenylethyl)-3-(2,4-dichlorophenyl)urea]	–	88	81	–	–
–	94.1	CCCCCCCN(CCc1ccccc1)C(=O)Nc1ccc(F)cc1F [1-(n-Heptyl)-1-(2-phenylethyl)-3-(2,4-difluorophenyl)urea]	–	57	59	–	–
–	93.8	CCCCCCCN(CCc1ccccc1)C(=O)Nc1ccc(Cl)cc1C [1-(n-Heptyl)-1-(2-phenylethyl)-3-(2-methyl-4-chlorophenyl)urea]	–	49	66	–	–
–	95.6	CCCCCCCN(Cc1ccc(OCCCC)cc1)C(=O)Nc1cc(C)c(C)cc1C [1-(n-Heptyl)-1-(4-butyloxybenzyl)-3-(2,4,5-trimethylphenyl)urea]	–	17	32	–	–
–	95.3	CCCCCCCN(Cc1ccc(CCCC)cc1)C(=O)Nc1cc(C)c(C)cc1C [1-(n-Heptyl)-1-(4-n-butylbenzyl)-3-(2,4,5-trimethylphenyl)urea]	–	10	33	–	–
–	80	CCCCCCCN(Cc1ccc(CCCC)cc1)C(=O)Nc1ccc(Cl)cc1Cl [1-(n-Heptyl)-1-(4-n-butylbenzyl)-3-(2,4-dichlorophenyl)urea]	–	50	58	–	–
–	94.8	CCCCCCCN(Cc1ccc(CCCC)cc1)C(=O)Nc1ccc(C)cc1C [1-(n-Heptyl)-1-(4-n-butylbenzyl)-3-(2,4-dimethylphenyl)urea]	–	14	46	–	–
–	97.4	CCCCCCCN(Cc1ccc(CCCC)cc1)C(=O)Nc1ccccc1C [1-(n-Heptyl)-1-(4-n-butylbenzyl)-3-(2-methylphenyl)urea]	–	29	35	–	–
–	93.8	CCCCCCCN(Cc1ccc(CCCC)cc1)C(=O)Nc1cccc(C)c1 [1-(n-Heptyl)-1-(4-n-butylbenzyl)-3-(3-methylphenyl)urea]	–	42	49	–	–
1080	–	CCCCCCCN(Cc1ccc(CCCC(=O)OCC)cc1)C(=O)Nc1c(C)cc(Cl)cc1C [1-(n-Heptyl)-1-[4-(3-carboethoxypropyl)benzyl]-3-(4-chloro-2,6-dimethylphenyl)urea]	–	–	–	65	55
110	–	CCCCCCCN(Cc1ccc(CCCCCl)cc1)C(=O)Nc1c(C)cc(Cl)cc1C [1-(n-Heptyl)-1-[4-(4-chlorobutyl)benzyl]-3-(4-chloro-2,6-dimethylphenyl)urea]	–	18	19	–	–
820	–	CCCCCCCN(Cc1ccc(CCCCO)cc1)C(=O)Nc1c(C)cc(Cl)cc1C [1-(n-Heptyl)-1-[4-(4-hydroxybutyl)benzyl]-3-(4-chloro-2,6-dimethylphenyl)urea]	–	–	–	26	24
